Tested on: K562
Test: Antiproliferative activity against human K562 cells assessed as cell growth at 10^-6 M after 48 hrs by sulforhodamine B assay
Type: functional
Settings: K562, 48 h, read-out: Activity

Q: For `CNC(=O)c1cc(Oc2ccc3nc(NC(=O)Nc4ccc(Cl)c(C(F)(F)F)c4)sc3c2)ccn1`, which growth at 1 µM is on record?
A: 96%

Tested on: T47D
Test: Antiproliferative activity against human T47D cells assessed as cell growth at 10^-6 M after 48 hrs by sulforhodamine B assay
Type: functional
Settings: read-out: Activity

Q: For `CNC(=O)c1cc(Oc2ccc3nc(NC(=O)Nc4ccc(Cl)c(C(F)(F)F)c4)sc3c2)ccn1`, which growth at 1 µM is on record?
A: 43%

Tested on: SK-MEL-28
Test: Antiproliferative activity against human SK-MEL-28 cells assessed as cell growth at 10^-7 M after 48 hrs by sulforhodamine B assay
Type: functional
Settings: SK-MEL-28, 48 h, read-out: Activity

Q: For `CNC(=O)c1cc(Oc2ccc3nc(NC(=O)Nc4ccc(Cl)c(C(F)(F)F)c4)sc3c2)ccn1`, which growth at 0.1 µM is on record?
A: 92%

Tested on: not listed separately
Test: Antiproliferative activity against human LOXIMVI cells assessed as growth inhibition after 48 hrs by sulforhodamine B assay
Type: functional
Settings: LOX IMVI

Q: With `CNC(=O)c1cc(Oc2ccc3nc(NC(=O)Nc4ccc(Cl)c(C(F)(F)F)c4)sc3c2)ccn1` as the molecule, how does the GI50 read?
A: 2.68 µM

Q: And the TGI?
A: > 100 µM

Same assay, conditions: LOX IMVI, read-out: LC50 (the source's name)

Q: For `CNC(=O)c1cc(Oc2ccc3nc(NC(=O)Nc4ccc(Cl)c(C(F)(F)F)c4)sc3c2)ccn1`, which CC50 is on record?
A: > 100 µM

Tested on: not listed separately
Test: Antiproliferative activity against human UO31 cells assessed as cell growth at 10^-4 M after 48 hrs by sulforhodamine B assay
Type: functional
Settings: UO-31, 48 h, read-out: Activity

Q: With `CNC(=O)c1cc(Oc2ccc3nc(NC(=O)Nc4ccc(Cl)c(C(F)(F)F)c4)sc3c2)ccn1` as the molecule, how does the growth at 100 µM read?
A: 28%

Tested on: not listed separately
Test: Antiproliferative activity against human HCT15 cells assessed as cell growth at 10^-7 M after 48 hrs by sulforhodamine B assay
Type: functional
Settings: HCT-15, 48 h, read-out: Activity

Q: For `CNC(=O)c1cc(Oc2ccc3nc(NC(=O)Nc4ccc(Cl)c(C(F)(F)F)c4)sc3c2)ccn1`, which growth at 0.1 µM is on record?
A: 96%

Tested on: not listed separately
Test: Antiproliferative activity against human HL-60(TB) cells assessed as cell growth at 10^-7 M after 48 hrs by sulforhodamine B assay
Type: functional
Settings: HL-60, 48 h, read-out: Activity

Q: With `CNC(=O)c1cc(Oc2ccc3nc(NC(=O)Nc4ccc(Cl)c(C(F)(F)F)c4)sc3c2)ccn1` as the molecule, how does the growth at 0.1 µM read?
A: 110%

Tested on: not listed separately
Test: Antiproliferative activity against human RXF393 cells assessed as cell growth at 10^-8 M after 48 hrs by sulforhodamine B assay
Type: functional
Settings: RXF 393, 48 h, read-out: Activity

Q: Which growth at 0.01 µM does the source give for `CNC(=O)c1cc(Oc2ccc3nc(NC(=O)Nc4ccc(Cl)c(C(F)(F)F)c4)sc3c2)ccn1` here?
A: 87%

Tested on: NCI-H322M
Test: Antiproliferative activity against human NCI-H322M cells assessed as cell growth at 10^-6 M after 48 hrs by sulforhodamine B assay
Type: functional
Settings: read-out: Activity

Q: Which growth at 1 µM does the source give for `CNC(=O)c1cc(Oc2ccc3nc(NC(=O)Nc4ccc(Cl)c(C(F)(F)F)c4)sc3c2)ccn1` here?
A: 96%

Tested on: not listed separately
Test: Antiproliferative activity against human BT549 cells assessed as growth inhibition after 48 hrs by sulforhodamine B assay
Type: functional
Settings: BT-549, 48 h

Q: For `CNC(=O)c1cc(Oc2ccc3nc(NC(=O)Nc4ccc(Cl)c(C(F)(F)F)c4)sc3c2)ccn1`, which GI50 is on record?
A: 2.64 µM

Q: And the TGI?
A: 9.73 µM

Same assay, conditions: BT-549, 48 h, read-out: LC50 (the source's name)

Q: For `CNC(=O)c1cc(Oc2ccc3nc(NC(=O)Nc4ccc(Cl)c(C(F)(F)F)c4)sc3c2)ccn1`, which CC50 is on record?
A: > 100 µM

Tested on: not listed separately
Test: Antiproliferative activity against human SF539 cells assessed as cell growth at 10^-7 M after 48 hrs by sulforhodamine B assay
Type: functional
Settings: SF-539, 48 h, read-out: Activity

Q: With `CNC(=O)c1cc(Oc2ccc3nc(NC(=O)Nc4ccc(Cl)c(C(F)(F)F)c4)sc3c2)ccn1` as the molecule, how does the growth at 0.1 µM read?
A: 97%

Tested on: ACHN
Test: Antiproliferative activity against human ACHN cells assessed as cell growth at 10^-4 M after 48 hrs by sulforhodamine B assay
Type: functional
Settings: read-out: Activity

Q: For `CNC(=O)c1cc(Oc2ccc3nc(NC(=O)Nc4ccc(Cl)c(C(F)(F)F)c4)sc3c2)ccn1`, which growth at 100 µM is on record?
A: -62%

Tested on: not listed separately
Test: Antiproliferative activity against human TK10 cells assessed as cell growth at 10^-6 M after 48 hrs by sulforhodamine B assay
Type: functional
Settings: TK-10, 48 h, read-out: Activity

Q: For `CNC(=O)c1cc(Oc2ccc3nc(NC(=O)Nc4ccc(Cl)c(C(F)(F)F)c4)sc3c2)ccn1`, which growth at 1 µM is on record?
A: 109%

Tested on: not listed separately
Test: Antiproliferative activity against human UACC62 cells assessed as cell growth at 10^-8 M after 48 hrs by sulforhodamine B assay
Type: functional
Settings: UACC-62, 48 h, read-out: Activity

Q: Which growth at 0.01 µM does the source give for `CNC(=O)c1cc(Oc2ccc3nc(NC(=O)Nc4ccc(Cl)c(C(F)(F)F)c4)sc3c2)ccn1` here?
A: 95%

Tested on: NCI-H460
Test: Antiproliferative activity against human NCI-H460 cells assessed as cell growth at 10^-6 M after 48 hrs by sulforhodamine B assay
Type: functional
Settings: NCI-H460, 48 h, read-out: Activity

Q: Which growth at 1 µM does the source give for `CNC(=O)c1cc(Oc2ccc3nc(NC(=O)Nc4ccc(Cl)c(C(F)(F)F)c4)sc3c2)ccn1` here?
A: 86%

Tested on: 786-0
Test: Antiproliferative activity against human 786-0 cells assessed as cell growth at 10^-8 M after 48 hrs by sulforhodamine B assay
Type: functional
Settings: 786-0, 48 h, read-out: Activity

Q: Which growth at 0.01 µM does the source give for `CNC(=O)c1cc(Oc2ccc3nc(NC(=O)Nc4ccc(Cl)c(C(F)(F)F)c4)sc3c2)ccn1` here?
A: 97%

Tested on: not listed separately
Test: Antiproliferative activity against human OVCAR4 cells assessed as cell growth at 10^-7 M after 48 hrs by sulforhodamine B assay
Type: functional
Settings: OVCAR-4, 48 h, read-out: Activity

Q: With `CNC(=O)c1cc(Oc2ccc3nc(NC(=O)Nc4ccc(Cl)c(C(F)(F)F)c4)sc3c2)ccn1` as the molecule, how does the growth at 0.1 µM read?
A: 95%

Tested on: not listed separately
Test: Antiproliferative activity against human SKOV3 cells assessed as cell growth at 10^-4 M after 48 hrs by sulforhodamine B assay
Type: functional
Settings: SK-OV-3, 48 h, read-out: Activity

Q: Which growth at 100 µM does the source give for `CNC(=O)c1cc(Oc2ccc3nc(NC(=O)Nc4ccc(Cl)c(C(F)(F)F)c4)sc3c2)ccn1` here?
A: -68%

Tested on: HT-29
Test: Antiproliferative activity against human HT-29 cells assessed as cell growth at 10^-6 M after 48 hrs by sulforhodamine B assay
Type: functional
Settings: HT-29, 48 h, read-out: Activity

Q: Which growth at 1 µM does the source give for `CNC(=O)c1cc(Oc2ccc3nc(NC(=O)Nc4ccc(Cl)c(C(F)(F)F)c4)sc3c2)ccn1` here?
A: 91%

Tested on: SK-MEL-2
Test: Antiproliferative activity against human SK-MEL-2 cells assessed as cell growth at 10^-8 M after 48 hrs by sulforhodamine B assay
Type: functional
Settings: SK-MEL-2, 48 h, read-out: Activity

Q: Which growth at 0.01 µM does the source give for `CNC(=O)c1cc(Oc2ccc3nc(NC(=O)Nc4ccc(Cl)c(C(F)(F)F)c4)sc3c2)ccn1` here?
A: 103%

From ChEMBL document CHEMBL3797052 (Eur J Med Chem, 2016)
